93 compounds from a melting point compilation (Tetko et al.; mined from patent text by program, amines drawn as free bases though some values may be those of a salt) can be followed below.

SMILES strings stand for the structures.

`Cc1cc(C)c(C(=O)ON2C(C)(C)c3ccccc3C2(C)C)c(C)c1`: the melting point (in general, the temperature, or range, at which the solid turns liquid) is 181 to 183 °C.

In turn, `CN1CCN(c2ccc(C(=O)O)cc2S(=O)(=O)Nc2ccccc2)CC1` registered a melting point of 252 to 253 °C.

As for `Cc1nc(N2CCN(C(=O)c3ccc(F)cc3)C2=O)sc1C(=O)NCc1ccccc1`, the melting point lay within 130 to 132 °C.

The compound `CC1(C)CON(Cc2ccc(N3C(=O)c4cccnc4C3=O)cc2Cl)C1=O` yielded a melting point of 139 to 141 °C.

In turn, `O=C(O)c1ccccc1C(=O)c1ccc(O)c(-c2ccccc2)c1` registered a melting point of 273 °C.

`O=C(c1cccc([N+](=O)[O-])c1)c1ccc(Oc2ccccc2)c([N+](=O)[O-])c1` showed a melting point of 135 to 136 °C.

`CCC(N=O)C(C)(C)Cl` (stereo not drawn) had a melting point of 85 to 86 °C.

`COC(=O)c1ccc2c3cccc4cccc(c5ccc(C(=O)N(C)c6ccc(C(C)(C)C)cc6)c1c25)c43`: the melting point turned out to be 272 °C.

The compound `COc1ccc(-n2nc(C(F)F)cc2-c2ccc(S(C)(=O)=O)cc2)cc1Cl` returned a melting point of 169 to 171 °C.

`NS(=O)(=O)c1ccsc1C(=O)OC1COC1` came in with a melting point of 158 to 160 °C.

`CC1(C)CC(N(CCCCCCN(CCC(=O)O)C2CC(C)(C)NC(C)(C)C2)CCC(=O)O)CC(C)(C)N1` returned a melting point greater than 250 °C.

Compound `Cc1ccc(C)c(NC(=O)CN2C(=O)C3(COc4cc5c(cc43)CCO5)c3ccccc32)c1` (stereo not drawn) yielded a melting point of 250 to 252 °C.

`CCc1c(C(=O)O)nn(-c2ccc(Cl)cc2Cl)c1-c1ccc(Cl)s1` registered a melting point of 207 to 208 °C.

On to `Cc1c(-n2ccnc2)n(Cc2ccc(C(=O)O)cc2)c2ccccc12`, for which the melting point lay in the range of 221 to 225 °C.

As to `CC(=O)NC(NC(=O)C(F)(F)F)C(=O)NCc1ccccc1` (stereo not drawn), the melting point lay in the range of 228 to 230 °C.

`COc1ccc2c(n1)c(CCNC(C)=O)c1n2CCCC1` showed a melting point of 89 to 90 °C.

On to `O=C(OCc1ccccc1)N1CCC2(CC1)CN(c1ccccc1)C(=O)O2`, for which the melting point lay within 100 to 102 °C.

`CNC1(c2cccs2)CCC(=O)CC1` displayed a melting point of 72 to 74 °C.

On to `O=C(NN1CCCNC1=O)OCc1ccccc1`, for which the melting point lay within 161 to 163 °C.

`CN(C)C1CCC2c3ccccc3Sc3ccc(C(F)(F)F)cc3N2C1` (stereo not drawn) had a melting point of 118 to 122 °C.

Compound `COc1ccc(CNC2(Cc3ccccc3)CCC(=O)CC2)cc1` registered a melting point of 122 to 124 °C.

The compound `O=C(NO)c1ccc(OC/C=C/COc2ccc(C(=O)NO)cc2)cc1` registered a melting point of 205 to 210 °C.

Compound `C=Cc1ccc(CN2CCNCCNCC2)cc1` showed a melting point of 56 to 59 °C.

The compound `COc1ccc(CC(=O)O)c(C(=O)c2ccccc2)c1` returned a melting point of 158 to 159 °C.

As for `COC(=O)C(=CNC1CC1)C(=O)c1cc(F)c(Cl)cc1OC`, the melting point lay within 128 to 132 °C.

`O=C(Nc1ccc(-n2nc(C(F)(F)F)cc2C(F)(F)F)cc1)c1ccc(Br)cc1Cl` gave a melting point of 164 to 167 °C.

Compound `COc1ccc(CC2NC(=O)NC2=O)cc1CCc1ccccc1` (stereo not drawn) came in with a melting point of 147 to 149 °C.

In turn, `CC(=Cc1ccc(O)c(Cl)c1)[N+](=O)[O-]` yielded a melting point of 91 to 93 °C.

Take `ClC1=NN(c2ccccc2)CC1`: the melting point was in the range of 92 to 93 °C.

Regarding `CCCCNc1c(C(=O)O)cnc2[nH]ncc12`, the melting point came to 225 °C.

As to `N#CNC=Nc1ccc(-c2c[nH]cn2)cc1`, the melting point is 234 to 235 °C.

For `COCc1cc(Oc2ccc3c(C(=O)Nc4ccc(C)c(C(F)(F)F)c4)cccc3c2)ncn1`, the melting point amounted to 188 °C.

Compound `CCCNC(=O)C1(CCCCN2CCC(N3Cc4ccccc4C3=O)CC2)C(c2ccccc2)=Cc2ccccc21` (stereo not drawn) came in with a melting point of 156 to 157 °C.

`O=C(O)c1cnn2c(C(F)(F)F)cc(-c3ccc(Cl)c(Cl)c3)nc12` returned a melting point of 264 °C.

With `CCc1c(Cl)cnc(N)c1F`, the melting point was in the range of 71 to 72 °C.

As to `COc1c(F)cc2c(c1-c1ccc(C[C@H](NC(=O)c3c(Cl)cccc3Cl)C(=O)O)cc1)OCO2`, the melting point is 198 to 199 °C.

`CNc1ccc(-n2nc3c4ccccc4[nH]cc-3c2=O)cc1`: the melting point lay within 302 to 304 °C.

Compound `Brc1ccc(-c2cc(-c3cccc(Br)c3)no2)cc1` registered a melting point of 169 °C.

Turning to `COc1cccc(NC(=N)Nc2cccc(OC)c2)c1`, the melting point fell in the range of 134 to 135 °C.

`CCOC(=O)c1ccn2ncc(-c3cccc(Cl)c3)c2n1` gave a melting point of 126 to 129 °C.

Consider `CC1=C(CO)C(C)(C)CCC1=NO`, for which the melting point lay within 152 to 155 °C.

`Cn1cc(C(O)c2ccncc2)cc1C(=O)c1ccc(Cl)cc1` (stereo not drawn) had a melting point of 145 to 146 °C.

Take `O=c1c(N2CCCNCC2)nc2ccccc2n1-c1cccc(F)c1`: the melting point lay in the range of 128 to 129 °C.

Regarding `O=C(O)c1nc(-c2ccc(Cl)cc2Cl)[nH]c1C(=O)O`, the melting point was 238 °C.

`CCOc1nc(O)ns1` showed a melting point of 98 °C.

Consider `Cc1nnc(C(C)(C)C)c(=O)n1N`, for which the melting point is 155 to 157 °C.

In the case of `c1ccc(-c2csc(CN3CCN(c4ccccc4)CC3)n2)cc1`, the melting point was 142 to 143 °C.

Turning to `Cc1c(C)c(N)c2c(c1C)C(c1ccc(C(C)C)cc1)CO2` (stereo not drawn), the melting point is 122 to 123 °C.

With `CC(C)(C)OC(=O)CN1CC(c2ccco2)SCC(N)C1=O` (stereo not drawn), the melting point was in the range of 90 to 92 °C.

`COc1c(N2CC[C@@H](C(C)(C)N)C2)c(F)cc2c(=O)c(C(=O)O)cn(C3CC3)c12` came in with a melting point of 225 to 227 °C.

Compound `COC(=O)CCc1conc1-c1ccc(F)c(Br)c1` had a melting point of 57 to 58 °C.

In the case of `O=C1NCN(c2ccccc2)C12CCN(CC1CCc3ccccc3O1)CC2` (stereo not drawn), the melting point was in the range of 192 to 194 °C.

With `CC1=Cc2cccc(S(N)(=O)=O)c2OS1(=O)=O`, the melting point was 204 to 205 °C.

In the case of `COC(=O)c1sc2c(c1N)c1ccccc1c(=O)n2-c1ccccc1Cl`, the melting point was 244 to 246 °C.

Compound `Cn1ccc2cccc(C3=C(c4c[nH]c5c(CCCO)cccc45)C(=O)NC3=O)c21` came in with a melting point of 183 to 185 °C.

`COc1ccc(Cn2cnc3c(Cl)nc([N+](=O)[O-])nc32)cc1` gave a melting point of 181 to 182 °C.

With `O=c1cc(C(F)(F)F)[nH]n1-c1ccccc1`, the melting point came out at 193 °C.

The compound `N#Cc1ccc(OC2SCC(O)C(O)C2O)cn1` (stereo not drawn) came in with a melting point of 179 to 180 °C.

`CC(C)c1ccc(NC(=O)C2CCCc3c(OCc4ccccc4)cccc32)cc1` (stereo not drawn) registered a melting point of 170 °C.

`O=C(O)c1cc(Oc2ccc([N+](=O)[O-])cc2)cc(Oc2ccc([N+](=O)[O-])cc2)c1` showed a melting point of 230 to 232 °C.

As for `C[C@H](N=C(C(=O)N[C@@H](C)c1ccccc1)C(C)(C)C)c1ccccc1`, the melting point lay within 96 to 97 °C.

As to `COC1=CC23CCN(C)C(Cc4ccc(OC)c(O)c42)C3=CC1C` (stereo not drawn), the melting point fell in the range of 97 to 100 °C.

In turn, `O=C(NCc1ccc(Cl)cc1)c1cnc2sccc2c1O` registered a melting point of 238 to 240 °C.

`CCOC(=O)CC1(c2ccc(OC)c(OC)c2)CNC(=O)C1` (stereo not drawn) registered a melting point of 60 to 62 °C.

The compound `COC(=O)c1nc(-c2ccc(Cl)c(OC)c2F)nc(N)c1F` had a melting point of 200 to 202 °C.

In the case of `O=C1c2c(O)cccc2C(SCCS)c2cccc(O)c21`, the melting point lay within 133 to 134 °C.

For `COc1ccc(Cl)c2c1CN(Nc1ccncc1)C2`, the melting point lay in the range of 229 to 230 °C.

Regarding `Nc1nc(Nc2ccc(SC3(Cl)C=CC(C(F)(F)F)=CN3)cc2)sc1C(=O)c1ccccc1[N+](=O)[O-]` (stereo not drawn), the melting point lay in the range of 150 to 152 °C.

`Nc1cccc(C2=NNC(=O)C3CC23)c1` (stereo not drawn) displayed a melting point of 192 to 193 °C.

Turning to `CC(=NOCCOc1ccc(CC2SC(=O)NC2=O)cc1)c1ccc(S(=O)(=O)c2ccncc2)cc1` (stereo not drawn), the melting point lay within 213 to 215 °C.

The compound `Ic1ccc(C2CCCCO2)cc1-c1cc(C2CCCCO2)ccc1I` (stereo not drawn) showed a melting point of 112 to 113 °C.

`CNc1nc(N)nc2cc(-c3ccccc3S(=O)(=O)NC)ccc12` returned a melting point of 316 to 317 °C.

`CCCCCCCc1ccc(CCCCCCC)c(C#N)c1C#N` returned a melting point of 4.6 °C.

Compound `O=C(NC1CCc2ccccc2C(CCCc2ccccc2)C1=O)OCc1ccccc1` (stereo not drawn) had a melting point of 106 to 108 °C.

The compound `CC(=O)CCCCC(=O)Nc1ccc(CC(NC(C)=O)C(=O)NCC(=O)OCc2ccccc2)cc1` (stereo not drawn) showed a melting point of 178 to 180 °C.

For `O=C(O)c1cnc(Nc2ccccc2F)[nH]c1=O`, the melting point was 300 °C.

With `N#Cc1ccc2oc3c(c(=O)c2c1)CCCC3`, the melting point was in the range of 198 to 200 °C.

In the case of `COC(=O)C[C@H](Br)C(N)=O`, the melting point is 82 to 84 °C.

For the compound `CCN(CC)C(=O)c1cc2ccccc2c(-c2cccc(F)c2)n1`, the melting point was 92 °C.

Consider `CCCCCCCCCCCCCCOCC(COCCCCCCCCCCCCCC)(CC(=O)N(C)C)CC(=O)N(C)C`, for which the melting point lay within 52 to 54 °C.

For `CC(C)(C)OC(=O)N[C@@H](Cc1ccccc1)[C@H](O)CNC1(c2cccc(C(F)(F)F)c2)CC1`, the melting point came to 124 °C.

In turn, `COc1ccc(C2=NN(c3ccc(OCCBr)cc3)C(=O)[C@@H]3CC=CC[C@H]23)cc1OC` registered a melting point of 40 to 45 °C.

Compound `OCC1CCC(CBr)CC1` (stereo not drawn) came in with a melting point of 146 to 149 °C.

The compound `CCOC(=O)C1CCc2ccc3[nH]c(C(F)(F)F)nc3c2O1` (stereo not drawn) returned a melting point of 134 °C.

`Cc1ccc(C2(O)CCCCC2C(c2ccccc2)N(C)C)cc1` (stereo not drawn) came in with a melting point of 168 to 169 °C.

In turn, `CCCCCCCCCNC(=O)OCCCNC(=O)OC1CCN(C(=O)Oc2ccc(Oc3ccccc3)cc2)CC1` gave a melting point of 89 to 91 °C.

Regarding `COc1ccc2sc(C(=O)OCC(C)(C)C(=O)C(C)(C)C)cc2c1`, the melting point was in the range of 74 to 75.5 °C.

Compound `Brc1ccc(-c2cccs2)s1` came in with a melting point of 55 to 56 °C.

As to `Cc1ccnc(C(O)c2cc(F)ccc2F)c1` (stereo not drawn), the melting point was in the range of 105 to 106 °C.

Compound `CCN(C)c1nc2cc(NC(=O)c3c(C(=O)O)cnn3C)ccn2n1` came in with a melting point greater than 250 °C.

Compound `O=C1Cc2cc3c(cc2CCN1Cc1ccccc1)OCO3` gave a melting point of 141 to 142 °C.

As to `O=C(O)C1Cc2sccc2C(=O)N1Cc1ccccc1` (stereo not drawn), the melting point amounted to 258 °C.

With `Cc1nc(O)c([N+](=O)[O-])c(O)n1`, the melting point is greater than 300 °C.
